Data set [1] has as its system Fibroblast growth factor receptor 2 (Homo sapiens), P21802 [V564F]. The experiment in a line: Inhibition of FGFR2 V564F mutant (unknown origin) at 10 uM by radiometric kinase activity assay relative to control.
For data set [2], the system named is BaF3. The experiment in a line: cells. In kind it is functional. Particulars: Mus musculus.
The subject of data set [3] is BaF3. The data set can be described thus: Antiproliferative activity against mouse BaF3 cells harboring TEL-FGFR3 assessed as cell growth inhibition by CellTiter-Glo assay. In kind it is functional. In general terms: ATP-based viability assays read luminescence as a measure of living cells.
Data set [4] is described as follows: Antiproliferative activity against mouse BaF3 cells assessed as cell growth inhibition by CellTiter-Glo assay. Particulars: BaF3 cells.
Data set [5] deals with BaF3. The data set can be described thus: Antiproliferative activity against mouse BaF3 cells harboring TEL-FGFR4 V550E mutant assessed as cell growth inhibition by CellTiter-Glo assay. In kind it is functional.
For data set [6], the system named is BaF3. The data set can be described thus: Antiproliferative activity against mouse BaF3 cells harboring TEL-FGFR4 N535K mutant assessed as cell growth inhibition by CellTiter-Glo assay. In kind it is functional.
Data set [7] deals with AN3-CA. The data set can be described thus: Antiproliferative activity against human AN3-CA cells harboring FGFR2 K310R/N549K mutant assessed as cell growth inhibition by CellTiter-Glo assay. In kind it is functional.
The next data set deals with KMS-11. The experiment in a line: Antiproliferative activity against human KMS-11 cells harboring FGFR3 Y373C mutant assessed as cell growth inhibition by CellTiter-Glo assay. In kind it is functional.
A further data set has as its system J82. The data set can be described thus: Antiproliferative activity against human J82 cells harboring FGFR3 K652E mutant assessed as cell growth inhibition by CellTiter-Glo assay. In kind it is functional.
The test system of data set [8] is AN3-CA. The experiment in a line: Antitumor activity against human AN3-CA cells xenografted in BALB/c mouse assessed as tumor mean volume at 10 mg/kg, po qd for 15 days measured once every 2 days (reference value: 100%). In kind it is functional. Particulars: time 15 day. (In general: A xenograft is tissue or cells of one species grown in another, often human tumour cells in immunodeficient mice.)

The subject of data set [9] is BaF3. The data set can be described thus: Antitumor activity against mouse BaF3 cells harboring TEL-V555M-FGFR3 mutant xenografted in BALB/c mouse assessed as tumor mean volume at 30 mg/kg, po qd for 15 days measured once every 2 days (reference value: 100%). In kind it is functional. Particulars: time 15 day.
For data set [10], the system named is BaF3. The experiment in a line: Antitumor activity against mouse BaF3 cells harboring TEL-V555M-FGFR3 mutant xenografted in BALB/c mouse assessed as tumor mean volume at 30 mg/kg, ip qd for 15 days measured once every 2 days (reference value: 100%). In kind it is functional. The settings on record: time 15 day.
Data set [11] has as its system BaF3. The experiment in a line: Antitumor activity against mouse BaF3 cells harboring TEL-V555M-FGFR3 mutant xenografted in BALB/c mouse assessed as tumor growth inhibition at 30 mg/kg, ip qd for 15 days measured once every 2 days. In kind it is functional. Particulars: BaF3, 360 h, time 15 day.
Data set [12] is described as follows: Stability in human liver microsomes assessed as parent compound remaining at 1 uM incubated for 30 mins. In kind it is ADME, Microsome. Particulars: read-out: Stability. (Liver microsomes are vesicles of endoplasmic reticulum, rich in cytochrome P450 enzymes.)
A short description of data set [13]: Stability in mouse liver microsomes assessed as parent compound remaining at 1 uM incubated for 30 mins. The settings on record: read-out: Stability. In kind it is ADME, Microsome.
The nature of data set [14]: Stability in rat liver microsomes assessed as parent compound remaining at 1 uM incubated for 30 mins. In kind it is ADME, Microsome. Particulars: read-out: Stability.
The nature of data set [15]: Stability in dog liver microsomes assessed as parent compound remaining at 1 uM incubated for 30 mins. In kind it is ADME, Canis lupus familiaris, Microsome. Particulars: read-out: Stability.
The next data set addresses T1, CYP1A2 (Homo sapiens, UniProt P05177).
T1 sequence (P05177 whole entry): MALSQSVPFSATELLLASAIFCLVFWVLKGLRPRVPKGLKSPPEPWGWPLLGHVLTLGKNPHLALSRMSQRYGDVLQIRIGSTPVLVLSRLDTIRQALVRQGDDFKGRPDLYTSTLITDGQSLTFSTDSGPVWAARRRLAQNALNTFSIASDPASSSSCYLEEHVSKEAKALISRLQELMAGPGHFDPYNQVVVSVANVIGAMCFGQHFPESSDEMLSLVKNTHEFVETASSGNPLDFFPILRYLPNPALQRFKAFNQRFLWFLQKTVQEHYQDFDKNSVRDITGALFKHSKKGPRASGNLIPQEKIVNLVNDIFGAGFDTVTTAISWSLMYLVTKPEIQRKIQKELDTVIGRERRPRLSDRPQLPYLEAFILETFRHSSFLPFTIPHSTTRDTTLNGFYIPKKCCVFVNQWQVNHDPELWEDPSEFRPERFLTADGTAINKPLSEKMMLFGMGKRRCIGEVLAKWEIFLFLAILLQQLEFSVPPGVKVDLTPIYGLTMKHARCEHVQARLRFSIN
The experiment in a line: Inhibition of CYP1A2 (unknown origin) assessed as remaining activity at 10 uM relative to control. In kind it is ADME. The settings on record: read-out: Activity.

The target in a further data set is CYP2C9 (Homo sapiens, UniProt P11712). The experiment in a line: Inhibition of CYP2C9 (unknown origin) assessed as remaining activity at 10 uM relative to control. In kind it is ADME. Particulars: read-out: Activity.
For a further data set, the target named is CYP2C19 (Homo sapiens, UniProt P33261). The data set can be described thus: Inhibition of CYP2C19 (unknown origin) assessed as remaining activity at 10 uM relative to control. In kind it is ADME. The settings on record: read-out: Activity.
For the next data set, the target named is CYP2D6 (Homo sapiens, UniProt P10635). The experiment in a line: Inhibition of CYP2D6 (unknown origin) assessed as remaining activity at 10 uM relative to control. In kind it is ADME. Particulars: read-out: Activity.
In a further data set the target is CYP3A4 (Homo sapiens, UniProt P08684). The experiment in a line: Inhibition of CYP3A4 (unknown origin) assessed as remaining activity at 10 uM relative to control. In kind it is ADME. The settings on record: read-out: Activity.

SMILES strings stand for the structures.

As a reminder, the inhibition is the relative decrease from the control value, in per cent. Read a low inhibition as little suppression. Broadly, the GI50 is the concentration that inhibits growth by half. One may read the inhibition in vivo as how much of the control response was suppressed.

Sequence of CYP3A4 (P08684 whole entry): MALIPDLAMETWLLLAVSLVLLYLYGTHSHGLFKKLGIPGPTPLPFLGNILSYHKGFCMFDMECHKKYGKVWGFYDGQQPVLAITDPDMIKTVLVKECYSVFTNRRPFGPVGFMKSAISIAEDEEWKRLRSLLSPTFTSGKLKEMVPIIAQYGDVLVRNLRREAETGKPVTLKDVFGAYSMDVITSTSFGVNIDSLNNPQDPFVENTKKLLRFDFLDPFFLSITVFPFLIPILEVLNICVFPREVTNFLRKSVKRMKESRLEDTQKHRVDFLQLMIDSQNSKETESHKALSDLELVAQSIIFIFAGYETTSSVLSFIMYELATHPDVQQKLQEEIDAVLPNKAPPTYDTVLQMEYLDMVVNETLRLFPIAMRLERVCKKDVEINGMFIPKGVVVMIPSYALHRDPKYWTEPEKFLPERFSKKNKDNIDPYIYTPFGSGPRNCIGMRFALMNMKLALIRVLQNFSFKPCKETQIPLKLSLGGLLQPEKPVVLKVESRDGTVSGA
Sequence of CYP2D6 (P10635 whole entry): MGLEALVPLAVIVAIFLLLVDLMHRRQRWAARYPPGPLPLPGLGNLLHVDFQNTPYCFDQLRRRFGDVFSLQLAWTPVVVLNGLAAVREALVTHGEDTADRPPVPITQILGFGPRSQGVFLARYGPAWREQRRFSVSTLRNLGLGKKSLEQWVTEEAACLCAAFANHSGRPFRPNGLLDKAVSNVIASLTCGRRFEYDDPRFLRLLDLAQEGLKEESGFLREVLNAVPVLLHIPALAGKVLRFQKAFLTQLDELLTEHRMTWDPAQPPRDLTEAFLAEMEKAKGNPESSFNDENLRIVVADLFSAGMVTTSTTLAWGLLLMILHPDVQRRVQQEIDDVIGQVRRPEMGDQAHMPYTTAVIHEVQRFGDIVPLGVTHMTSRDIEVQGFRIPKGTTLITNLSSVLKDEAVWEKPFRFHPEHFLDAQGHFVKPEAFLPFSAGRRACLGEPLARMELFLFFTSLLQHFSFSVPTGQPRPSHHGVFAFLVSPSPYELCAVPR
Sequence of CYP2C19 (P33261 whole entry): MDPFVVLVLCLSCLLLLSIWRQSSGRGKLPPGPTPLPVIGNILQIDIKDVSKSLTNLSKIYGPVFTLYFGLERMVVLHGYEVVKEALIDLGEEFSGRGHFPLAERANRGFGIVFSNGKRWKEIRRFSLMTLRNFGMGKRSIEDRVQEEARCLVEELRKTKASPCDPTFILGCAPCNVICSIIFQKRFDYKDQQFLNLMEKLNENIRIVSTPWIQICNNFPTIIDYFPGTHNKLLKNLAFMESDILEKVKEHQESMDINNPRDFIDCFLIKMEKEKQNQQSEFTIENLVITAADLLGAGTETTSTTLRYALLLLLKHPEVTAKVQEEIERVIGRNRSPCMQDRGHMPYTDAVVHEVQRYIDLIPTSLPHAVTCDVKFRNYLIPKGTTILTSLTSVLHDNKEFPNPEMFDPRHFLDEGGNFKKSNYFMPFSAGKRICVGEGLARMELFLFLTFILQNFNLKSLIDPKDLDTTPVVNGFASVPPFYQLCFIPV
Sequence of Fibroblast growth factor receptor 2 (Homo sapiens), P21802 [V564F] (P21802 whole entry V564F): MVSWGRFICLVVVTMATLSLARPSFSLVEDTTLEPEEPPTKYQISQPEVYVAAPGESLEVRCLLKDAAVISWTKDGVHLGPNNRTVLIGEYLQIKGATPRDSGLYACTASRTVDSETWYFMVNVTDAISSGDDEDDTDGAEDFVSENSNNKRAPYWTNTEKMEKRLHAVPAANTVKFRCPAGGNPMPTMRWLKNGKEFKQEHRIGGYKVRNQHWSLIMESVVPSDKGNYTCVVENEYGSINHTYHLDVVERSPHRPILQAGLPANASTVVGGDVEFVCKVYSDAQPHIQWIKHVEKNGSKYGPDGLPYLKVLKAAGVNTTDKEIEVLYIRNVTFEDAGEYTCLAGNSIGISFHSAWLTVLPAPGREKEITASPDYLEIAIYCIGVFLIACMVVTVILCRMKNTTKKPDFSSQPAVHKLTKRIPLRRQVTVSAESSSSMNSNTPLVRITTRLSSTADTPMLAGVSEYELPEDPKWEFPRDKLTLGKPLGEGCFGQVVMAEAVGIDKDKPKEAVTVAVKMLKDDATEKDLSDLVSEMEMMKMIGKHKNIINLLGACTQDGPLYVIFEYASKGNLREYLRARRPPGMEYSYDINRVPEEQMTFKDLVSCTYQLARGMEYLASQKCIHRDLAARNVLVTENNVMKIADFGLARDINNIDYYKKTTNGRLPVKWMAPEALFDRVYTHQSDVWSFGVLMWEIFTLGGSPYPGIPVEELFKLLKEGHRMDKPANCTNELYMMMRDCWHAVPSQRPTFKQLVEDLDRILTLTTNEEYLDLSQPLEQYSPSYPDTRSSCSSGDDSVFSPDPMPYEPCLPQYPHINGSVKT
Sequence of CYP2C9 (P11712 whole entry): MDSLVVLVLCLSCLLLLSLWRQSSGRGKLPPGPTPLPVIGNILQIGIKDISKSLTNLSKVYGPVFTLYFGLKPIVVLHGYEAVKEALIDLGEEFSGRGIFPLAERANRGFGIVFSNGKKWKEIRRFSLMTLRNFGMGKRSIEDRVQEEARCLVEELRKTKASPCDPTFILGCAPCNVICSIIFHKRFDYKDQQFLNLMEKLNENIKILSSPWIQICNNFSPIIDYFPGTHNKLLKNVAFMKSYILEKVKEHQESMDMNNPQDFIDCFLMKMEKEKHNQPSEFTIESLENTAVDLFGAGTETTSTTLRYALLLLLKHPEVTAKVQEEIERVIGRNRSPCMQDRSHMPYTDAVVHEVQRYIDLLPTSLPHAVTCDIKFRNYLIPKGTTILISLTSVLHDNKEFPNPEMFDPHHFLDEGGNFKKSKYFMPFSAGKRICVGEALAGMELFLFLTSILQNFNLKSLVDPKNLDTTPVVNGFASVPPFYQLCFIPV

`CCN1CCN(c2ccc(Nc3cc(N(C)C(=O)Nc4c(Cl)c(OC)cc(OC)c4Cl)ncn3)cc2)CC1` [INFIGRATINIB]: in data set [1], the inhibition was less than 50%. In addition, the GI50 in the data set on BaF3 [2] is 2600 nM; with BaF3 [3], 5 nM; in [4], more than 5000 nM; in the data set on BaF3 [5] it was 4000 nM; in the data set with BaF3 [6] it was more than 5000 nM; with AN3-CA [7], 39 nM. The GI50 amounted to 220 nM in the data set with KMS-11 and 3340 nM with J82. Besides, the Activity with AN3-CA [8] was 14.1%; in the data set with BaF3 [9], 49%; in the data set with BaF3 [10], 44.74%. For the same molecule, in the data set on BaF3 [11], the inhibition in vivo at 30 mg/kg was 60.2%. For the same molecule, the remaining at 0.5 h, 1 µM in [12] stood at 77%; in data set [13], 22.3%; in data set [14], 10.9%; in data set [15] it was 8.1%. The activity at 10 µM was found to be 77.3% at CYP1A2; 88.4% on CYP2C9; 64.9% at CYP2C19; 94.9% at CYP2D6; 83% at CYP3A4.

(Values after ChEMBL document CHEMBL5131515, “Identification of Pyridinyltriazine Derivatives as Potent panFGFR Inhibitors against Gatekeeper Mutants for Overcoming Drug Resistance” (J Med Chem, 2022).)
